Patent US10676710B2, “Cell culture compositions with antioxidants and methods for polypeptide production” (Genentech, Inc., priority 2013, dated 2020)

Experiments:
IgG1 monoclonal antibody = assay: Antioxidant incubation screening: color intensity of antibody composition after incubation in Media 1/Media 2 mixture; conditions: 1X test concentration in Media 1 + Media 2 mixture, 2 g/L IgG1 mAb, 5 days 37° C.; normalized to positive control (0% change)
Description: For antioxidant screening, a total volume of 40 ml media was prepared by mixing 1 part basal Media 1 and 0.3 part feed Media 2 to mirror a representative ratio of media used in cell culture conditions (Table 5). […] The samples were incubated at 37° C. with shaking at 250 rpm for a five day incubation period.
After incubation, the monoclonal antibody was purified using protein A affinity chromatography. The pool was concentrated to 150 g/L using Amicon Centricon centrifugal filter devices (Millipore Corporation, Billerica, Mass.). Color intensity of the concentrated antibody composition was measured in the concentrated protein A pool using an assay wherein higher numerical values indicate higher color intensity and lower numerical values indicate lower color intensity. The numerical results were normalized to the positive control, where the value for the positive control was set at 0% change in color intensity.

[1] = test system: antibody producing CHO cells; assay: 2-liter stirred bioreactor fed-batch cell culture in basal Media 1/feed Media 2 supplemented with hypotaurine or analog; type: cell-based, Chinese hamster; conditions: for cell growth as measured by VCC: 12.95 mM hypotaurine or 10 mM carboxymethylcysteine in Media 1, 2 L bioreactor (FIG. 7A); for cell viability: 12.95 mM hypotaurine or 10 mM carboxymethylcysteine in Media 1, 2 L bioreactor (FIG. 7B); for antibody production (antibody titer by HPLC): 12.95 mM hypotaurine or 10 mM carboxymethylcysteine in Media 1, 2 L bioreactor (FIG. 8); for color intensity reduction of isolated antibody composition, specific color assay / color intensity reduction of isolated antibody composition, second color assay: 12.95 mM hypotaurine or 10 mM carboxymethylcysteine in Media 1, protein A pool 150 g/L; for color intensity reduction of isolated antibody composition, specific color assay: vs positive control (FIG. 9A); for color intensity reduction of isolated antibody composition, second color assay: vs positive control (FIG. 9B)
Description: Antibody producing CHO cells were inoculated at approximately 1.0×10^6 cells/mL in 2-liter stirred bioreactors (Applikon, Foster City, Calif.) containing 1 L of basal Media 1 supplemented with 12.95 mM hypotaurine or 10 mM carboxymethylcysteine (CAS number 638-23-3). Cells were cultured in fed-batch mode with addition of 100 mL of feed Media 2 per liter of cell culture fluid at days 3, 6 and 9 for initiation of the production phase. A positive control was included by culturing cells in Media 1 and 2 without hypotaurine supplementation. The concentration of glucose was analyzed every day and if the glucose concentration fell below 2 g/L, it was replenished from a […] stock solution of glucose for prevention of glucose depletion. Reactors were equipped with calibrated dissolved oxygen, pH and temperature probes. Dissolved oxygen was controlled on-line through sparging with air and/or oxygen. pH was controlled through addition of CO2 or Na2CO3 and antifoam was added to the cultures as needed. The cell cultures were maintained at pH 7.0 and a temperature of 37° C. from days 0 through 3, and then at 35° C. after day 3. The cell cultures were agitated at 275 rpm and the dissolved oxygen level was at 30% of air saturation. Osmolality was monitored using an osmometer from Advanced Instruments (Norwood, Mass.). Offline pH and metabolite concentrations were also determined daily using a Nova Bioprofile 400 (Nova Biomedical, Waltham, Mass.). VCC and cell viability was measured daily using a ViCell® automated cell counter (Beckman Coulter, Fullerton, Calif.). The cell culture fluid was collected daily by centrifuging 1 mL of cell culture fluid for determination of antibody titer using high performance liquid chromatography. At the end of the cell culture duration on day 14, when the amount of protein in the culture was approximately 2-10 g/L, the cell culture fluid from all samples was harvested by centrifugation. The monoclonal antibody in the harvested cell culture fluid was purified using protein A affinity chromatography. The protein A pool was concentrated to 150 g/L using Amicon Centricon centrifugal filter devices (Millipore Corporation, Billerica, Mass.). Color intensity of the concentrated antibody composition was measured in the concentrated protein A pool using two different assays wherein higher numerical values indicated higher color intensity and lower numerical values indicated lower color intensity. […] This color intensity reduction was confirmed by using a second color assay which detected an approximate 17% and 13% color intensity reduction in antibody compositions isolated from cell cultured in media supplemented with hypotaurine and carboxymethylcysteine, respectively (FIG. 9B).

[2] = listed as carboxy methyl cysteine

Structure (SMILES) | reduction of color intensity of the antibody-containing compositions (IgG1 monoclonal antibody) | cell growth as measured by VCC [1] | cell growth as measured by VCC [1, 2] | cell viability [1] | cell viability [1, 2] | antibody production (antibody titer by HPLC) [1] | antibody production (antibody titer by HPLC) [1, 2] | color intensity reduction of isolated antibody composition, specific color assay [1] | color intensity reduction of isolated antibody composition, second color assay [1]
NCCS(=O)(=O)O [Taurine, 2-aminoethane-1-sulfonic acid] | approximately 5% |  |  |  |  |  |  |  | 
N[C@@H](CSCC(=O)O)C(=O)O [carboxymethylcysteine, (2R)-2-amino-3-[(carboxymethyl)sulfanyl]propanoic acid] |  | comparable | did not compromise | comparable | did not compromise | comparable levels of antibody titers | did not significantly reduce | 13% | ~13%
NCCS(=O)O [hypotaurine, 2-aminoethane-1-sulfinate] |  |  |  |  |  |  |  | 27% | ~17%
